Columns and labels:
Format in all cases: in vivo
Details in all cases: 50 ppm, 100 = 100% disease control, 0 = no control
Septoria tritici = experiment: Test A: wheat leaf blotch, preventive spray on wheat seedlings
Summary of the method: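 Wheat seedlings sprayed to run-off with compound suspended in acetone/water with 250 ppm PEG400 surfactant, inoculated next day with Septoria tritici spores. Held 48 h saturated at 24 °C, then 17 days at 20 °C; disease rated 0–100% control relative to controls.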

[1] = test system: Puccinia recondita f. sp. tritici; experiment: Test B: wheat leaf rust, preventive spray on wheat seedlings
Summary of the method: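 Wheat seedlings were sprayed to run-off with compound suspended at ppm concentrations in acetone/water containing 250 ppm PEG400. The next day they were inoculated with Puccinia recondita f. sp. tritici spores, held saturated at 20 °C for 24 h, then kept 7 days at 20 °C. Disease control was rated 0–100% relative to untreated controls.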

[2] = test system: Blumeria graminis f. sp. tritici; experiment: Test C: wheat powdery mildew, preventive spray on wheat seedlings
From the text: General protocol for preparing test suspensions for Tests A-F: the test compounds were first dissolved in acetone in an amount equal to 3% of the final volume and then suspended at the desired concentration (in ppm) in acetone and purified water (50/50 mix by volume) containing 250 ppm of the surfactant PEG400 (polyhydric alcohol esters). The resulting test suspensions were then used in Tests A-F.
The test suspension was sprayed to the point of run-off on wheat seedlings. The following day the seedlings were inoculated with a spore dust of Blumeria graminis f. sp. tritici, (also known as Erysiphe graminis f. sp. tritici, the causal agent of wheat powdery mildew) and incubated in a growth chamber at 20° C. for 8 days, after which time visual disease ratings were made.
A rating of 100 indicates 100% disease control and a rating of 0 indicates no disease control (relative to the controls). A dash (−) indicates the compound was not tested.

Phakopsora pachyrhizi = experiment: Test D: Asian soybean rust, preventive spray on soybean seedlings
Summary of the method: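 Compounds in acetone/water (50/50) with 250 ppm PEG400, dosed in ppm, sprayed to run-off on soybean seedlings; inoculated with P. pachyrhizi spores next day. Held 24 h at 22 °C in saturated air, then 8 days at 22 °C; visual rating of disease control, 0–100, relative to untreated controls.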

Botrytis cinerea = experiment: Test E: tomato Botrytis, preventive spray on tomato seedlings
Summary of the method: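 Compound suspended in 50/50 acetone/water with 250 ppm PEG400 surfactant and sprayed to run-off on tomato seedlings; Botrytis cinerea spores applied the next day. Incubation 48 h at 20° C in saturated atmosphere, then 3 days at 24° C. Visual rating 0–100% disease control relative to controls.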

Alternaria solani = experiment: Test F: tomato early blight, preventive spray on tomato seedlings
Summary of the method: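 Tomato seedlings were sprayed to run-off with compound suspended in acetone/water (50/50) with 250 ppm PEG400 and inoculated with Alternaria solani spores the next day. Plants were held 48 h at 27 °C in saturated humidity, then 3 days at 20 °C. Disease control was rated visually from 0 to 100 against untreated controls.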

Row | Structure (SMILES) | Test A disease control rating (Septoria tritici) | Test B disease control rating [1] | Test C disease control rating [2] | Test D disease control rating (Phakopsora pachyrhizi) | Test E disease control rating (Botrytis cinerea) | Test F disease control rating (Alternaria solani)
1 | COc1ccc(-c2c(C)nn(C)c2Nc2c(Cl)cc(C)cc2[N+](=O)[O-])c(Cl)c1 [compound 66] | 100% | 100% | 98% | 97% | 98% | 96%
2 | Cc1ccc(Nc2c(-c3c(F)cccc3Cl)c(C)nn2C)c([N+](=O)[O-])c1 [compound 195] | 100% | 98% | 97% | 0% | 98% | 73%
3 | Cc1nn(C)c(Nc2ccc(OC(F)(F)F)cc2[N+](=O)[O-])c1-c1ccc(F)cc1Cl [compound 94] | 73% | 0% | 72% | 73% | 0% | 9%
4 | Cc1nn(C)c(Nc2c(Cl)cc(Cl)cc2[N+](=O)[O-])c1-c1ccc(F)cc1Cl [compound 59] | 100% | 100% | 99% | 96% | 99% | 92%
5 | Cc1nn(C)c(Nc2c(F)cc(F)cc2[N+](=O)[O-])c1-c1c(F)cccc1Cl [compound 39] | 100% | 100% | 99% | 73% | 88% | 99%
6 | Cc1nn(C)c(Nc2c(Cl)cc(F)cc2[N+](=O)[O-])c1-c1ccc(Cl)cc1F [compound 176] | 100% | 97% | 0% | 0% | 9% | 0%
7 | Cc1ccc(Nc2c(-c3ccc(C#N)cc3Cl)c(C)nn2C)c([N+](=O)[O-])c1 [compound 14] | 100% | 97% | 83% | 48% | 96% | 83%
8 | Cc1nn(C)c(Nc2c(F)cc(F)cc2[N+](=O)[O-])c1-c1ccc(Cl)cc1Cl [compound 9] | 100% | 100% | 97% | 0% | 97% | 99%
9 | Cc1nn(C)c(Nc2c(F)cc(F)cc2[N+](=O)[O-])c1-c1ccc(F)cc1Br [compound 51] | 100% | 100% | 100% | 79% | 98% | 99%
10 | COc1ccc(-c2c(C)nn(C)c2Nc2c(Cl)cccc2[N+](=O)[O-])c(Cl)c1 [compound 184] | 100% | 100% | 21% | 0% | 100% | 26%
11 | Cc1cc(Cl)c(Nc2c(-c3ccc(F)cc3Cl)c(C)nn2C)c([N+](=O)[O-])c1 [compound 31] | 100% | 100% | 100% | 98% | 99% | 76%
12 | Cc1cccc([N+](=O)[O-])c1Nc1c(-c2c(F)cc(F)cc2Cl)c(C)nn1C [compound 153] | 99% | 100% | 99% | 73% | 99% | 72%
13 | Cc1cc(F)c(Nc2c(-c3c(F)cc(F)cc3F)c(C)nn2C)c([N+](=O)[O-])c1 [compound 194] | 100% | 100% | 100% | 99% | 99% | 100%
14 | CCc1nn(C)c(Nc2c(Cl)cc(C)cc2[N+](=O)[O-])c1-c1ccc(F)cc1F [compound 16] | 100% | 99% | 98% | 50% | 99% | 0%
15 | Cc1nn(C)c(Nc2ccc(OC(F)F)cc2[N+](=O)[O-])c1-c1ccc(F)cc1Cl [compound 28] | 91% | 68% | 69% | 0% | 99% | 0%
16 | CCOc1ccc(Nc2c(-c3ccc(F)cc3Cl)c(C)nn2C)c([N+](=O)[O-])c1 [compound 103] | 97% | 80% | 50% | 0% | 83% | 0%
17 | Cc1cccc([N+](=O)[O-])c1Nc1c(-c2ccc(C#N)cc2Cl)c(C)nn1C [compound 157] | 100% | 97% | 76% | 0% | 9% | 0%
18 | Cc1cc(Cl)cc([N+](=O)[O-])c1Nc1c(-c2ccc(F)cc2Cl)c(C)nn1C [compound 33] | 100% | 100% | 99% | 92% | 99% | 85%
19 | Cc1nn(C)c(Nc2ccc(Br)cc2[N+](=O)[O-])c1-c1ccc(F)cc1Cl [compound 91] | 99% | 88% | 84% | 0% | 99% | 26%
20 | Cc1nn(C)c(Nc2c(F)cccc2[N+](=O)[O-])c1-c1ccc(Cl)cc1Cl [compound 69] | 100% | 100% | 97% | 77% | 100% | 99%
21 | Cc1nn(C)c(Nc2c(F)cc(Br)cc2[N+](=O)[O-])c1-c1ccc(Cl)cc1Cl [compound 132] | 100% | 98% | 47% | 0% | 99% | 96%
22 | Cc1cc(F)c(Nc2c(-c3c(F)cc(F)cc3Cl)c(C)nn2C)c([N+](=O)[O-])c1 [compound 193] | 100% | 100% | 100% | 99% | 99% | 100%
23 | Cc1cc(F)c(Nc2c(-c3ccc(Cl)cc3Cl)c(C)nn2C)c([N+](=O)[O-])c1 [compound 143] | 99% | 100% | 96% | 87% | 99% | 100%
24 | Cc1cccc([N+](=O)[O-])c1Nc1c(-c2ccc(F)cc2Cl)c(C)nn1C [compound 117] | 99% | 100% | 95% | 0% | 99% | 76%
25 | Cc1nn(C)c(Nc2cccc(Cl)c2[N+](=O)[O-])c1-c1c(F)cccc1F [compound 99] | 99% | 0% | 0% | 0% | 24% | 0%

— patent US20230148599A1, “FUNGICIDAL MIXTURES CONTAINING PYRAZOLE DERIVATIVES” (FMC Corporation, priority 2020, published 2023)
